# Source: the supplement of paper PMC10307832
# Tests used:
# Assay in all cases: relative viability (nuclei count vs DMSO), 5 days (fraction); higher = more cells survive
# [1] = compound: O=C(CCCCCCC(=O)Nc1ccccc1)NO [Vorinostat] + Nc1ncn([C@H]2C[C@H](O)[C@@H](CO)O2)c(=O)n1 [Decitabine] (partner 2 µM)
# Summary of the method: (§1)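 Lung cancer cell lines, seeded in 1536-well plates, were treated the following day by pin tool with a single drug or with five library-drug doses (not always all listed) in √10 steps on top of a fixed anchor-drug dose. Cells were fixed and nuclei stained in one step after 5 days, and nuclei were counted. Relative viability is the nuclei count for treated wells divided by that for vehicle wells, reported as medians of duplicate plates.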
# [2] = compound: O=C(CCCCCCC(=O)Nc1ccccc1)NO [Vorinostat] + COc1cccc2cc(-c3nc([C@H]4CC[C@H](C(=O)O)CC4)n4ncnc(N)c34)[nH]c12 [OSI-027] (partner 0.5 µM)
# Summary of the method: as §1
# [3] = compound: O=C(CCCCCCC(=O)Nc1ccccc1)NO [Vorinostat] + CCNC(=O)c1noc(-c2cc(C(C)C)c(O)cc2O)c1-c1ccc(CN2CCOCC2)cc1 [Luminespib] (partner 0.01 µM)
# Summary of the method: as §1
# [4] = compound: O=C(CCCCCCC(=O)Nc1ccccc1)NO [Vorinostat] + CS(=O)(=O)CCNCc1ccc(-c2ccc3ncnc(Nc4ccc(OCc5cccc(F)c5)c(Cl)c4)c3c2)o1 [Lapatinib] (partner 2 µM)
# Summary of the method: as §1
# [5] = compound: O=C(CCCCCCC(=O)Nc1ccccc1)NO [Vorinostat] + Cc1nc(NC(=O)N2CCC[C@H]2C(N)=O)sc1-c1ccnc(C(C)(C)C(F)(F)F)c1 [Alpelisib] (partner 2 µM)
# Summary of the method: as §1
Cell Line,relative viability ([1]; first compound 0.253 µM),relative viability ([1]; first compound 0.8 µM),relative viability ([1]; first compound 2.53 µM),relative viability ([1]; first compound 8 µM),relative viability ([2]; first compound 0.253 µM),relative viability ([2]; first compound 0.8 µM),relative viability ([2]; first compound 2.53 µM),relative viability ([2]; first compound 8 µM),relative viability ([3]; first compound 0.253 µM),relative viability ([3]; first compound 0.8 µM),relative viability ([3]; first compound 2.53 µM),relative viability ([3]; first compound 8 µM),relative viability ([4]; first compound 0.253 µM),relative viability ([4]; first compound 0.8 µM),relative viability ([4]; first compound 2.53 µM),relative viability ([4]; first compound 8 µM),relative viability ([5]; first compound 0.253 µM),relative viability ([5]; first compound 0.8 µM),relative viability ([5]; first compound 2.53 µM),relative viability ([5]; first compound 8 µM)
NCI-H520,0.581,0.474,0.297,0.157,0.361,0.265,0.204,0.217,0.209,0.213,0.212,0.195,1.12,0.668,0.319,0.116,1.02,0.588,0.487,0.139
NCI-H596,1.07,0.902,0.68,0.36,0.843,0.36,0.637,0.293,0.933,1.05,0.476,0.265,1.26,0.971,0.781,0.307,0.871,0.482,0.278,0.248
NCI-H647,0.356,0.286,0.137,0.0323,0.777,0.526,0.19,0.0491,0.0999,0.146,0.222,0.0619,1.49,0.947,0.163,0.0687,1.51,0.966,0.254,0.0332
NCI-H650,0.332,0.312,0.208,0.104,0.514,0.458,0.175,0.129,0.773,0.808,0.201,0.155,1.15,0.489,0.196,0.177,1.43,0.933,0.191,0.146
NCI-H661,0.575,0.468,0.335,0.316,0.79,0.665,0.297,0.245,0.905,0.725,0.34,0.298,0.549,0.682,0.275,0.161,1.23,1.09,0.491,0.171
NCI-H727,0.902,0.82,0.707,0.522,0.682,0.574,0.477,0.393,0.25,0.378,0.311,0.341,0.632,0.736,0.335,0.227,0.536,0.68,0.303,0.203
NCI-H838,0.542,0.597,0.325,0.198,0.531,0.508,0.298,0.137,0.287,0.207,0.199,0.118,1.44,0.863,0.425,0.148,1.23,1.1,0.605,0.185
NCI-H1355,0.393,0.354,0.253,0.143,0.442,0.309,0.228,0.164,0.894,0.681,0.383,0.184,1.02,0.792,0.693,0.157,1.1,0.691,0.321,0.145
NCI-H1395,0.857,0.69,0.565,0.343,0.647,0.597,0.418,0.352,0.912,0.829,0.643,0.346,1.26,0.906,0.671,0.371,1.48,1.09,0.57,0.373
NCI-H1437,0.55,0.454,0.285,0.235,0.934,0.467,0.197,0.146,1.14,1.07,0.712,0.187,0.846,0.476,0.153,0.0924,0.858,0.738,0.152,0.104
NCI-H1651,0.58,0.477,0.202,0.0686,1,0.607,0.195,0.0644,0.831,0.799,0.429,0.116,1.07,0.532,0.108,0.0671,1.04,0.713,0.119,0.0787
NCI-H1666,0.703,0.654,0.548,0.329,0.772,0.678,0.383,0.335,1.16,0.894,0.477,0.339,0.606,0.339,0.228,0.167,0.962,0.586,0.245,0.156
NCI-H1734,0.548,0.444,0.31,0.0873,0.803,0.672,0.362,0.137,0.24,0.185,0.165,0.0945,1.33,0.993,0.678,0.162,0.714,0.7,0.518,0.137
NCI-H1755,0.703,0.773,0.44,0.213,0.734,0.681,0.384,0.185,0.442,0.661,0.572,0.166,1.05,1.03,0.28,0.154,1.03,0.92,0.326,0.137
NCI-H1792,0.414,0.413,0.163,0.0341,0.776,0.676,0.511,0.1,0.533,0.388,0.295,0.144,0.964,0.904,0.907,0.0753,0.742,0.55,0.207,0.0419
NCI-H1793,0.596,0.504,0.38,0.165,0.328,0.32,0.302,0.151,0.206,0.187,0.159,0.146,0.588,0.613,0.375,0.162,0.905,0.96,0.519,0.251
